Test results taken from patent publication US9248108B2 (Ottawa Hospital Research Institute, priority 2012, dated 2016).
Marks after values point to notes of the source that are not given here.

Tests used:
[1] = system: GV oocytes from young hybrid F1 females (C57BL/6 x SPRET/Ei); assay: IVM of GV oocytes from young hybrid F1 females, metaphase II egg karyotyping; type: cell-based, mouse; settings: 17 h IVM, 5 mM DFMO
Procedure: Table 8 DFMO increases the egg aneuploidy rate of young hybrid F1 females. GV oocytes isolated from young (7-8 weeks) hybrid F1 females, via crossing C57BL/6 females and SPRET/Ei males, were incubated for 17 h in αMEM (control) or αMEM containing 5 mM DFMO. […] Hypoploid: 18-19 dyads. Euploid: 20 dyads. Hyperploid: 21 or 22 dyads. […] Aneuploid: 2×hyperploid+PSSC. Detailed breakdowns are in Table 9.
Two other mouse models were additionally used. First, DFMO was tested as a potential treatment to […] egg aneuploidy in the hybrid F1 females that has a high baseline aneuploidy rate similar to human (Koehler et al., 2006).
(§1) Decoding was done after karyotypes were tabulated.

[2] = system: young (7-8 weeks) CF1 mice; assay: DFMO in mouse drinking water, karyotyping of oviduct-derived metaphase II eggs; type: in vivo
From the text: The effect of DFMO on egg aneuploidy in vivo was also examined. […] Oviduct-derived metaphase II eggs, from control mice and DFMO treated mice, were subjected to karyotype analyses. In these and all subsequent egg karyotype analyses, anti-CREST antibodies were used to label centromeres (Hodges & Hunt, 2002), in addition to DNA staining. This modification allowed unambiguous identification of single sister chromatid(s) in metaphase II eggs, termed premature separation of sister chromatids (PSSC), the predominant form of mouse egg aneuploidies found in this study (see Table 3).
Hypoploid: 18-19 dyads. Euploid: 20 dyads. Hyperploid: 21 or 22 dyads. […] Aneuploid: 2×hyperploid+PSSC. Detailed breakdowns are in Table 7.
In order to collect mature (metaphase II) oocytes in vivo (ovulation experiments) each mouse was injected with 5 IU human chorionic gonadotropin (hCG) intraperitoneally 44-46 h after eCG priming. The animals were euthanized 16-18 h after hCG injection and MII eggs were flushed out of oviducts in M2 medium and subjected to karyotype analyses as described below. For mice that were treated with 1% DFMO in drinking water, the drugs were present until the time of euthanization (see FIG. 4 for details).
as §1

ovarian polyamines = assay: Ovarian polyamine quantification by ion chromatography; type: in vivo, mouse; settings: 1% DFMO in drinking water for 48 hours up to sacrifice
Procedure: A Dionex ion chromatography system was used to analyze polyamines during ovulation. This system employs an online conductivity detector coupled with an anion suppressor such that only cations are detected. Ovaries were extracted in 5% trichloric acid (TCA) followed by extraction with diethyl ether. The TCA extracts were diluted in water before being applied to the ion chromatography system.
Polyamines from ovarian samples were determined by ion chromatography (IC) system (Rey and Pohl, 2003. J. Chromatography A 997:199-206). Ovaries were collected immediately after animal sacrifice and stored at −80° C. until use. The samples were thawed and minced, and then 5% trichloroacetic acid (TCA) was added (20 μl/mg). The samples were ultra-sonicated 30 seconds thrice. After centrifugation, the supernatants were extracted twice with diethyl ether. The mouse blood was collected in a tube containing 1 iu/ml heparin (LEO). After centrifugation, the supernatant (plasma) was collected and 10% TCA was added by 1:1 in volume. These plasma samples were extracted twice with diethyl ether, as noted above. The extracts were diluted 10 times in water for polyamine analysis on Dionex Ion ICS-2100 system (Thermo scientific, Dionex, Sunnyvale, Calif., USA) according to the manufacture instructions, using the support software of PeakNet 6.40 SP5 Build 778.

ovarian ODC = target: T1, ovarian ODC (Mus musculus, UniProt P00860); assay: Ovarian ODC activity assay; type: in vivo; settings: 1% DFMO in drinking water, hCG-stimulated 8-week-old mice
T1 construct: The ovarian homogenates were centrifuged at 16,000×g for 10 min; Supernatants were applied to ODC assays; from tissue; host or cells: mouse ovary (C57BL/6, 8 weeks old, hCG-stimulated), homogenate supernatant
T1 sequence (P00860 1-461): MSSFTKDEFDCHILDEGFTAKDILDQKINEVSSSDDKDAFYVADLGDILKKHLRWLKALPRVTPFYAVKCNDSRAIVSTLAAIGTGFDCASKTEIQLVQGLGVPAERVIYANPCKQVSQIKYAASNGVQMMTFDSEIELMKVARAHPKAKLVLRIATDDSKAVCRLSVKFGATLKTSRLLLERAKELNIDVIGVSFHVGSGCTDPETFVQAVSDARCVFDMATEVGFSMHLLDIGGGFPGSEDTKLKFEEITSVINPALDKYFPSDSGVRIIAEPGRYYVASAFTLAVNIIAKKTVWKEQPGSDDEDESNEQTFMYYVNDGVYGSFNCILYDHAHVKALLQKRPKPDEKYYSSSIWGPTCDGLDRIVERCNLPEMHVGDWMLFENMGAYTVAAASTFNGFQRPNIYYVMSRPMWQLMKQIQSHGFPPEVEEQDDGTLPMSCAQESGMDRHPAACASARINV
Procedure: After 44-46 h eCG priming, or 6 h following the subsequent hCG injection, the ovaries were collected into Eppendorf tubes and frozen at −80° C. immediately till use. The ovaries were weighed and minced with optical scissors. Lysis buffer (25 mM Tris/HCl pH 7.2, 2 mM dithiothreitol, 0.1 mM EDTA, 0.25 M sucrose, 0.1% Triton X-100 (v/v); modified from Bastida et al. (Bastida et al., 2005) was added 25 μL per mg ovarian tissues and the resulting suspension homogenized by sonication (Fisher Sonic Demembrator, New York, USA) for 20 seconds thrice. The ovarian homogenates were centrifuged at 16,000×g for 10 min. Supernatants were applied to ODC assays (Zhou et al., 2009) in microtiter plates, each well containing 50 μL of lysate, plus 0.1 mM pyridoxyl-5-phosphate and 0.5 μCi (57.1 mCi/mmol) of 14C-labeled ornithine (PerkinElmer, Boston, Mass.). The wells were tightly covered with 3MM paper pre-wet in freshly prepared water-saturated Ba(OH)2. The wells were incubated 1 h at 37° C. ^14CO2 released from decarboxylation reaction formed Ba^14CO3 precipitates on filter. […] The Storage phosphor screen was then scanned on Typhoon™ imaging system (GE Healthcare Life Sciences), resulting in digital images that were then quantified by Image Quant5.2 (GE Healthcare Life Sciences). ODC activity is expressed as relative light intensity in arbitrary units.

[3] = system: GV oocytes from 7-8-week-old CF1 mice; assay: In vitro maturation (IVM) of GV oocytes from young CF1 mice, metaphase II egg karyotyping (chromosome staining only); type: cell-based, mouse
[4] = system: 2-cell embryos of young CF1 mice; assay: DFMO in mouse drinking water prior to mating, 2-cell embryo karyotyping; type: in vivo
Procedure: Table 10 DFMO in mouse drinking water increases hyperploid 2-cell embryos. Young (7-8 weeks) CF1 mice were treated with regular water (control), or 1% DFMO drinking water for 48 h, prior to mating (see FIG. 5 for details). Embryos (2-cell) were isolated and subjected to karyotype analyses. N: Total interpretable 2-cell embryos. Euploid: 40 chromosomes in each of the two blastomeres, or 40 chromosomes in one blastomere with the other blastomere having less than 40 chromosomes or uninterpretable/lost. Hypoploid: 39 chromosomes in each of the two blastomeres, or 39 in one blastomere with the other less than 39 or uninterpretable/lost. Hyperploid: 41 chromosomes in at least one blastomere (we found no 42 or more chromosomes in this study). Detailed breakdowns are in Table 11.
To produce 2-cell embryos, mice were sequentially injected with eCG and hCG, as above for ovulation. After hCG injection, the females were caged singly with fertile young males overnight. For mice that were treated with 1% DFMO, the drug was withdrawn, and normal water resumed, at the time of hCG injection (see […] for details). The females were separated from the males in the next morning (day 1 post coital or p.c.). Females were euthanized in the late morning on day 2 p.c., and the embryos were collected by flushing the oviducts with M2 medium. After three rinses in KSOM medium, the embryos were cultured 17 h in KSOM containing 0.02 μg/ml colchicine to cause metaphase arrest of the 2-cell embryos.
as §1

[5] = number of ovulated MII eggs, 1% DFMO drinking water 48 h
[6] = number of 2-cell embryos, 1% DFMO drinking water 48 h prior to mating
[7] = percent of interpretable 2-cell embryos, 1% DFMO drinking water 48 h

Question: `NCCC[C@](N)(C(=O)O)C(F)F` [DFMO, α-difluoromethylornithine] was tested. Which “% Hyperploidy” value [1] did it give?
Answer: 2.5** %

Question: And the “% Aneuploidy” value ([1]; Aneuploid: 2×hyperploid+PSSC)?
Answer: 22.5%

Question: What about the “Euploid 20” value ([1]; number of MII eggs) of the same molecule?
Answer: 50

Question: What about the “Hyperploid 21” value ([1]; number of MII eggs) of the same molecule?
Answer: 2

Question: What about the “Hyperploid 22” value ([1]; number of MII eggs) of the same molecule?
Answer: 0

Question: And the “Hypoploid 18” value ([1]; number of MII eggs)?
Answer: 5

Question: And the “Hypoploid 19” value ([1]; number of MII eggs)?
Answer: 9

Question: What about the PSSC ([1]; number of MII eggs) of the same molecule?
Answer: 14*

Question: What about the “% Hyperploidy” value ([2]; 1% DFMO drinking water 48 h) of the same molecule?
Answer: 1.1** %

Question: What about the “number of MII eggs collected from the oviducts” value ([2]; 1% DFMO drinking water, n=37) of the same molecule?
Answer: 29.3 /mouse

Question: What about the “% Aneuploidy” value ([2]; Aneuploid: 2×hyperploid+PSSC, 1% DFMO drinking water 48 h) of the same molecule?
Answer: 7.7%

Question: And the PSSC ([2]; number of eggs with separated sister chromatid(s), 1% DFMO drinking water 48 h)?
Answer: 14*

Question: And the “Eupoloid 20” value [2, 5]?
Answer: 191

Question: And the “Hyperploid 21” value [2, 5]?
Answer: 3

Question: What about the “Hyperploid 22” value [2, 5] of the same molecule?
Answer: 0

Question: And the “Hypoploid 18” value [2, 5]?
Answer: 12

Question: What about the “Hypoploid 19” value [2, 5] of the same molecule?
Answer: 41

Question: What about the “hCG-mediated ovarian putrescine increase” value (ovarian polyamines) of the same molecule?
Answer: completely eliminated

Question: And the “ovarian ODC activity” value (ovarian ODC)?
Answer: efficiently inhibited

Question: And the “first polar body emission” value ([3]; 5 mM DFMO in IVM medium, 776/945)?
Answer: 82%

Question: And the “% Hyperploidy” value ([3]; 17 h IVM, 5 mM)?
Answer: 4.9 * %

Question: And the “Hypoploid 18” value ([3]; number of MII eggs with 18 chromosomes, 17 h IVM, 5 mM each agent in αMEM)?
Answer: 2

Question: And the “Hypoploid 19” value ([3]; number of MII eggs with 19 chromosomes, 17 h IVM, 5 mM)?
Answer: 18

Question: What about the “Eupoloid 20” value ([3]; number of MII eggs with 20 chromosomes, 17 h IVM, 5 mM) of the same molecule?
Answer: 175

Question: And the “Hyperploid 21” value ([3]; number of MII eggs with 21 chromosomes, 17 h IVM, 5 mM)?
Answer: 10

Question: And the “Hyperploid 22” value ([3]; number of MII eggs with 22 chromosomes, 17 h IVM, 5 mM)?
Answer: 0

Question: What about the “Euploid 40” value [4, 6] of the same molecule?
Answer: 38

Question: What about the “Hyperploid 41” value [4, 6] of the same molecule?
Answer: 5

Question: And the “Hypoploid 39” value [4, 6]?
Answer: 5

Question: What about the “Euploid 40” value [4, 7] of the same molecule?
Answer: 79.2%

Question: What about the “Hyperploid 41” value [4, 7] of the same molecule?
Answer: 10.4%

Question: What about the “Hypoploid 39” value [4, 7] of the same molecule?
Answer: 10.4%
